Here are results for 3 compounds from ChEMBL document CHEMBL2413068, “Solid-phase synthesis of 5'-triphosphate 2'-5'-oligoadenylates analogs with 3'-O-biolabile groups and their evaluation as RNase L activators and antiviral drugs” (Bioorg Med Chem, 2013).

As a reminder, the pEC50 is the negative decadic logarithm of the EC50, by convention in mol/L. In general, CC50 refers to the concentration at which the toxic effect on the cells reaches its halfway point.

The target of data set [1] is T1, 2-5A-dependent ribonuclease (Homo sapiens, UniProt Q05823).
T1 sequence (Q05823 whole entry): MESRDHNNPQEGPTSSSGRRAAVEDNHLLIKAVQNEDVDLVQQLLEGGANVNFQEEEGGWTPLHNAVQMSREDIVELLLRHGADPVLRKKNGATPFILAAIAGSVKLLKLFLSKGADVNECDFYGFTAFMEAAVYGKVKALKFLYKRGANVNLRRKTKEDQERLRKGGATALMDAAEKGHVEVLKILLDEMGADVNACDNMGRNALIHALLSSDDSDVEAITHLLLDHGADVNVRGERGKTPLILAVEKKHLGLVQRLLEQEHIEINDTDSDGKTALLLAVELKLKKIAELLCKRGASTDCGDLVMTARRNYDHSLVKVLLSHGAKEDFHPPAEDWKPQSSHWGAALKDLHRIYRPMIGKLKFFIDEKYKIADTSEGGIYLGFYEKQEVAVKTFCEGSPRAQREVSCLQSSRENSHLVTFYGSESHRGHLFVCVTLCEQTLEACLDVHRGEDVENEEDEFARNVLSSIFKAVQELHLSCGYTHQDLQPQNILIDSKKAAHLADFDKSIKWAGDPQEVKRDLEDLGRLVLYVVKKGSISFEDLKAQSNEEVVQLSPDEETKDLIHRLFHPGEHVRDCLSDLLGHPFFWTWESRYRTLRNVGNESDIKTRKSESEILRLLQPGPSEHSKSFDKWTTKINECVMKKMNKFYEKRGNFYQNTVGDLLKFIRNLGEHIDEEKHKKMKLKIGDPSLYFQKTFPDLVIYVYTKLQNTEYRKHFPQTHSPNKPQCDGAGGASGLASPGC
As to the kind of experiment: Activation of human recombinant RNase L endonuclease activity using 6-FAM-UUAUCAAAUUCUUAUUUGCCCCAUUUUUUUGGUUUA-BHQ-1 as substrate assessed as substrate cleavage measured for 50 mins by FRET assay.

The test system of data set [2] is Respiratory syncytial virus. As to the kind of experiment: Antiviral activity against Respiratory syncytial virus A2 infected in african green monkey Vero cells assessed as reduction of virus-induced cytopathic effect at >= 15 nM pretreated 2 hrs before viral infection measured daily using hucker's crystal violet staining. It counts as functional, organism-based. On the technique in general: Protection from cytopathic effect is a common read-out in antiviral testing.

Data set [3] deals with Vero. In words: Cytotoxicity against african green monkey Vero cells assessed as cell viability up to 100 uM by Hucker's crystal violet staining. It counts as cell-based. The note with it: chlorocebus sabaeus.
The nature of data set [4]: Cytotoxicity against human A549 cells after 72 hrs by Cell Titer-Glo assay. It counts as cell-based. (Cellular ATP, detected with luciferase, serves as a proxy for viable cell number.)
A short description of data set [5]: Selectivity index, ratio of CC50 for human A549 cells to EC50 for Influenza A virus (A/WSN/1933(H1N1)). It counts as toxicity, cell-based. The settings on record: read-out: Ratio CC50/EC50.
Data set [6] deals with Influenza A virus. As to the kind of experiment: Antiviral activity against Influenza A virus (A/WSN/1933(H1N1)) infected in human A549 cells assessed as reduction of viral RNA level my measuring luminescence after 72 hrs by RT-PCR analysis. It counts as functional, organism-based. The note with it: A549, 72 h.
Data set [7] has as its system Vero. As to the kind of experiment: Cytotoxicity against Respiratory syncytial virus A2 infected african green monkey Vero cells at 33.3 uM by Hucker's crystal violet staining. It counts as cell-based. The settings on record: chlorocebus sabaeus.

pEC50: −log10 of the molar value. Calls of active or inactive are those of the source. No cut-off for these calls is given here.

Regarding `CC(C)(C)C(=O)OCO[C@H]1[C@@H](O)[C@H](n2cnc3ncnc(N)c32)O[C@@H]1COP(=O)(O)O[C@@H]1[C@H](OCOC(=O)C(C)(C)C)[C@@H](COP(=O)(O)O[C@@H]2[C@H](OCOC(=O)C(C)(C)C)[C@@H](COP(=O)(O)O[C@@H]3[C@H](OCOC(=O)C(C)(C)C)[C@@H](COP(=O)(O)OP(=O)(O)OP(=O)(O)O)O[C@H]3n3cnc4ncnc(N)c43)O[C@H]2n2cnc3ncnc(N)c32)O[C@H]1n1cnc2ncnc(N)c21`, in data set [1], the pEC50 is 6.62.
As for `CC(C)(C)C(=O)OCO[C@H]1[C@@H](O)[C@H](n2cnc3ncnc(N)c32)O[C@@H]1COP(=O)(O)O[C@@H]1[C@H](OCOC(=O)C(C)(C)C)[C@@H](COP(=O)(O)O[C@@H]2[C@H](OCOC(=O)C(C)(C)C)[C@@H](COP(=O)(O)OP(=O)(O)OP(=O)(O)O)O[C@H]2n2cnc3ncnc(N)c32)O[C@H]1n1cnc2ncnc(N)c21`, the outcome in data set [2] was Active. The Activity entry in data set [3] was “Non-toxic”; in data set [7] it was “Toxic”. Besides, the pEC50 in data set [1] was 7.72; in data set [6], 4.84. For the same compound, in data set [4], the midpoint of cytotoxicity, the CC50 at 72 h, lay at 47000 nM. In data set [5], the selectivity ratio is 3.
In the case of `Nc1ncnc2ncn([C@@H]3O[C@H](COP(=O)(O)O[C@@H]4[C@H](O)[C@@H](COP(=O)(O)O[C@@H]5[C@H](O)[C@@H](COP(=O)(O)O[C@@H]6[C@H](O)[C@@H](COP(=O)(O)OP(=O)(O)OP(=O)(O)O)O[C@H]6n6cnc7ncnc(N)c76)O[C@H]5n5cnc6ncnc(N)c65)O[C@H]4n4cnc5ncnc(N)c54)[C@@H](O)[C@H]3O)c12`, the pEC50 in data set [1] was 8.21.
